Data reported in the supplement of paper PMC12463676, “Small-molecule dissolution of stress granules by redox modulation benefits ALS models” (Nature Chemical Biology, 2025).

What follows are targets tested with NC(=O)CCCCC1CCSS1 [lipoamide] (assay: thermal stability z-score vs DMSO; higher = more thermally stabilized by treatment). Details: HeLa; lipoamide concentration 100 µM; arsenate co-treatment: 1 mM arsenate 1 h.
Protocol: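 Cellular thermal proteome profiling in HeLa cells. Cells were treated with 100 µM lipoamide for 1 h, with or without 1 mM arsenate for a further 1 h, then heated to ten temperatures (37-66.3 °C), and soluble protein was quantified by TMT mass spectrometry relative to 0.1% DMSO controls. The thermal stability score (sum of log2 fold changes minus the abundance score) was transformed to a z-score; mean of n = 3 experiments.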
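Further: each temperature applied for 3 min, abundance score taken as mean log2 fold change at the two lowest temperatures, z-score obtained by mean subtraction and division by SD.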

Sequence of UniProt Q8IUR7 (Q8IUR7 whole entry): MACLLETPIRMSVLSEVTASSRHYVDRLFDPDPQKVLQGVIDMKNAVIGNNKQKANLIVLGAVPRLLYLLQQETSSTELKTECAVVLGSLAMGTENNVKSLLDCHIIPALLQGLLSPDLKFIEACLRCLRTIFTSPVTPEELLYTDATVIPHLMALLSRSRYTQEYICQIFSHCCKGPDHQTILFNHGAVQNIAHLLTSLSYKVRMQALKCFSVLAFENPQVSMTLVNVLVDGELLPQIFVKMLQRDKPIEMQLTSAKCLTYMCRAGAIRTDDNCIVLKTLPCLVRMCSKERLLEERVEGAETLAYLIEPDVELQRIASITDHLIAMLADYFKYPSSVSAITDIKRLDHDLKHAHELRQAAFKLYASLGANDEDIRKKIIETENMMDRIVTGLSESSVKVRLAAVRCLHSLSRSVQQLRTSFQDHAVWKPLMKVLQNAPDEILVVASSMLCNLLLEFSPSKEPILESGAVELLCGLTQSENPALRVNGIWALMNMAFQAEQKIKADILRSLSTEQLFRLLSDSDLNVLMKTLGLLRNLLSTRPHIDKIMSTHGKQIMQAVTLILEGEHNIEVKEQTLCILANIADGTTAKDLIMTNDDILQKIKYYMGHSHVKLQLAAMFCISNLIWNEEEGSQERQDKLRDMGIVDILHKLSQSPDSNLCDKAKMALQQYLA
Sequence of UniProt Q9BW60 (Q9BW60 whole entry): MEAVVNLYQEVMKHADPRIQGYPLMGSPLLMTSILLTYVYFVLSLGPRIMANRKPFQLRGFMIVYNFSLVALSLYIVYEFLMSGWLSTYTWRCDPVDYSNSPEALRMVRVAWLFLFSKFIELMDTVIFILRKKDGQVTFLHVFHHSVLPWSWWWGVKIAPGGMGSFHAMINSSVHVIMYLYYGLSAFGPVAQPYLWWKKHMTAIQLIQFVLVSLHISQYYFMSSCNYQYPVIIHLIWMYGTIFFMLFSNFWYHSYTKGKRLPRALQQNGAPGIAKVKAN
Sequence of UniProt Q9NVS9 (Q9NVS9 whole entry): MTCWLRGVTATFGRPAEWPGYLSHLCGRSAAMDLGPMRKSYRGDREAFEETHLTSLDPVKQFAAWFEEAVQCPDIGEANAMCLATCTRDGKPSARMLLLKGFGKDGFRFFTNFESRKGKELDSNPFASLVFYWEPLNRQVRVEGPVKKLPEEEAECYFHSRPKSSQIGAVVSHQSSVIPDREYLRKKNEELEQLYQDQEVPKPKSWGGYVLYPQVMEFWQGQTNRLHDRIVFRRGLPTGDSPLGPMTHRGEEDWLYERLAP

Going from LAMB3 (UniProt Q13751) to BABAM1 (UniProt Q9NWV8), the thermal stability z-score rises from -1.92 to 0.196.

Compared with SLTM (UniProt Q9NWH9), ARMC8 (UniProt Q8IUR7) is lower in thermal stability z-score: 0.712 for the first, -0.0708 for the second.

Going from OTUD7B (UniProt Q6GQQ9) to DDAH1 (UniProt O94760), the thermal stability z-score rises from 0.194 to 0.568.

Going from OXNAD1 (UniProt Q96HP4) to NDUFAF6 (UniProt Q330K2), the thermal stability z-score rises from 0.221 to 0.234.

Compared with TMEM161A (UniProt Q9NX61), INPP5K (UniProt Q9BT40) is higher in thermal stability z-score: -0.0739 for the first, -0.0181 for the second.

Compared with NDUFC2 (UniProt O95298), RAI14 (UniProt Q9P0K7) is lower in thermal stability z-score: 1.34 for the first, -0.47 for the second.

First: CYCS (UniProt P99999)
Sequence of UniProt P99999 (P99999 whole entry): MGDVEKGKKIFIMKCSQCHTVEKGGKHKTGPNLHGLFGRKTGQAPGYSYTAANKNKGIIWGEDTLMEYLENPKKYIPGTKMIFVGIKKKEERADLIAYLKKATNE
Second: SLC30A7 (UniProt Q8NEW0)
The thermal stability z-score of the first is higher: 0.873 for the first, -1.48 for the second.

First: WDR34 (UniProt Q96EX3)
Second: SKP2 (UniProt Q13309)
The thermal stability z-score of the first is lower: -0.251 for the first, -0.219 for the second.

Compared with SPRYD4 (UniProt Q8WW59), MOCOS (UniProt Q96EN8) is lower in thermal stability z-score: 2.66 for the first, 0.344 for the second.

Going from UBR1 (UniProt Q8IWV7) to MFF (UniProt Q9GZY8), the thermal stability z-score falls from -0.198 to -0.338.

Compared with CDK12 (UniProt Q9NYV4), TRIM65 (UniProt Q6PJ69) is higher in thermal stability z-score: -0.233 for the first, -0.203 for the second.

Compared with PNPO (UniProt Q9NVS9), HDDC3 (UniProt Q8N4P3) is lower in thermal stability z-score: 0.101 for the first, -0.522 for the second.

Compared with PRIM2 (UniProt P49643), ELOVL1 (UniProt Q9BW60) is lower in thermal stability z-score: 0.176 for the first, -0.883 for the second.

First: IGF2BP3 (UniProt O00425)
Second: RPS2 (UniProt P15880)
The thermal stability z-score of the first is lower: -0.521 for the first, 0.307 for the second.

Going from ZPR1 (UniProt O75312) to RER1 (UniProt O15258), the thermal stability z-score rises from 0.753 to 0.802.

Same assay, conditions: HeLa; lipoamide concentration 100 µM; arsenate co-treatment: none

First: LAMB3 (UniProt Q13751)
Second: BABAM1 (UniProt Q9NWV8)
Sequence of UniProt Q9NWV8 (Q9NWV8 whole entry): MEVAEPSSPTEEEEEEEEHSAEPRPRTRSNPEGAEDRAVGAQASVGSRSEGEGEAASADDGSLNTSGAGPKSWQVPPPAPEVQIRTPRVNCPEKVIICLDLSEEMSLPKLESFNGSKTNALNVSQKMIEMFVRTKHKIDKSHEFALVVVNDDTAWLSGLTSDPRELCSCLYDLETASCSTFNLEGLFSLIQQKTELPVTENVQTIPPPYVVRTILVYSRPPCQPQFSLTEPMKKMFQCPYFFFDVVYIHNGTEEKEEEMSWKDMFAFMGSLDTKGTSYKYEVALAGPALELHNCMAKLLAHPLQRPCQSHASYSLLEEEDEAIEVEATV
The thermal stability z-score of the first is lower: -1.59 for the first, 0.129 for the second.

Compared with SLTM (UniProt Q9NWH9), ARMC8 (UniProt Q8IUR7) is higher in thermal stability z-score: -0.493 for the first, -0.238 for the second.

First: OTUD7B (UniProt Q6GQQ9)
Second: DDAH1 (UniProt O94760)
The thermal stability z-score of the first is higher: 0.173 for the first, 0.134 for the second.

First: OXNAD1 (UniProt Q96HP4)
Sequence of UniProt Q96HP4 (Q96HP4 whole entry): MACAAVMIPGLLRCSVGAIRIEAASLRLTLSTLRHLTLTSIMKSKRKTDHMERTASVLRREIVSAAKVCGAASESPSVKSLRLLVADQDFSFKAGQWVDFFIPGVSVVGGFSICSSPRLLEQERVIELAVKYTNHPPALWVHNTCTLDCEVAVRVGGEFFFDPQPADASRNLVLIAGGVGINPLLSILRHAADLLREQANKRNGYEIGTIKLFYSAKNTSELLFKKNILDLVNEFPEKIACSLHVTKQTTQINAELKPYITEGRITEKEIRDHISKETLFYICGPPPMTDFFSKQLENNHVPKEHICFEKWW
Second: NDUFAF6 (UniProt Q330K2)
The thermal stability z-score of the first is higher: 0.451 for the first, 0.0618 for the second.

Going from TMEM161A (UniProt Q9NX61) to INPP5K (UniProt Q9BT40), the thermal stability z-score rises from -0.0906 to 0.225.

First: NDUFC2 (UniProt O95298)
Sequence of UniProt O95298 (O95298 whole entry): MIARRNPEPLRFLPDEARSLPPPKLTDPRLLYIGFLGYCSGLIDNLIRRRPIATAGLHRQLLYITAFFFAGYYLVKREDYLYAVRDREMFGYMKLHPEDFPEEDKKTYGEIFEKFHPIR
Second: RAI14 (UniProt Q9P0K7)
Sequence of UniProt Q9P0K7 (Q9P0K7 whole entry): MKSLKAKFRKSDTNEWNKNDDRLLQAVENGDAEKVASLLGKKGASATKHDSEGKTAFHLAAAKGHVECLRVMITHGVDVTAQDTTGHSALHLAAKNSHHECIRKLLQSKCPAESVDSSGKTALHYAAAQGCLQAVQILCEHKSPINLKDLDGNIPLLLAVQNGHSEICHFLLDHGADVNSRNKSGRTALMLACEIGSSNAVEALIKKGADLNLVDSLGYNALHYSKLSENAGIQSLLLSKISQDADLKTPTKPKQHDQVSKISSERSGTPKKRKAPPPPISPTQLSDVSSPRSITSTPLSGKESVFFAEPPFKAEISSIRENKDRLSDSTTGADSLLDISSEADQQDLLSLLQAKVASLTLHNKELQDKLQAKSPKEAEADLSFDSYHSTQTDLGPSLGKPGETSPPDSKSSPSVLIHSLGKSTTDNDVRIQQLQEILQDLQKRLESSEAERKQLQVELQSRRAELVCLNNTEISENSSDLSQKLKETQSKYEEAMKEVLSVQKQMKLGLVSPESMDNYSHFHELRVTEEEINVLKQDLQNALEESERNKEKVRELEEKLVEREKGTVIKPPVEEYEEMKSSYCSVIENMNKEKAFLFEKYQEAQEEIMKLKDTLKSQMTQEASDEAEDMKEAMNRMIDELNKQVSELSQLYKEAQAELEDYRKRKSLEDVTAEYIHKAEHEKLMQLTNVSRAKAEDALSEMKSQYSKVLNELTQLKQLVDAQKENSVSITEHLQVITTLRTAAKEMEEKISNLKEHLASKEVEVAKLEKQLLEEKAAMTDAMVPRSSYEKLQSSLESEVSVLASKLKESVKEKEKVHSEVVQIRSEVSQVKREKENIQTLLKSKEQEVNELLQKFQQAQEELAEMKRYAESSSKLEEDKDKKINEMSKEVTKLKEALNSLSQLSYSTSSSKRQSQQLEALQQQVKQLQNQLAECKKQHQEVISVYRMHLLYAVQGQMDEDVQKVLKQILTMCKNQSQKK
The thermal stability z-score of the first is higher: 0.996 for the first, -0.419 for the second.

Compared with CYCS (UniProt P99999), SLC30A7 (UniProt Q8NEW0) is lower in thermal stability z-score: 0.819 for the first, -1.78 for the second.

First: WDR34 (UniProt Q96EX3)
Second: SKP2 (UniProt Q13309)
The thermal stability z-score of the first is lower: -0.215 for the first, -0.122 for the second.

Compared with SPRYD4 (UniProt Q8WW59), MOCOS (UniProt Q96EN8) is lower in thermal stability z-score: 2.54 for the first, 0.221 for the second.

Compared with UBR1 (UniProt Q8IWV7), MFF (UniProt Q9GZY8) is lower in thermal stability z-score: 0.193 for the first, -0.0711 for the second.

First: CDK12 (UniProt Q9NYV4)
Second: TRIM65 (UniProt Q6PJ69)
The thermal stability z-score of the first is higher: 0.0238 for the first, -0.225 for the second.

Compared with PNPO (UniProt Q9NVS9), HDDC3 (UniProt Q8N4P3) is lower in thermal stability z-score: 0.677 for the first, -1.05 for the second.

Going from PRIM2 (UniProt P49643) to ELOVL1 (UniProt Q9BW60), the thermal stability z-score falls from -0.165 to -0.778.

Going from IGF2BP3 (UniProt O00425) to RPS2 (UniProt P15880), the thermal stability z-score rises from -0.325 to 0.259.

Compared with ZPR1 (UniProt O75312), RER1 (UniProt O15258) is higher in thermal stability z-score: -0.187 for the first, 0.615 for the second.

Each target was assayed with O=[As]([O-])(O)O.[K+] [potassium arsenate] in the same assay as above. Details: HeLa; arsenate concentration 1 mM.
Protocol: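 Cellular thermal proteome profiling in HeLa cells treated with 1 mM arsenate for 1 h (DMSO pretreatment), heated to ten temperatures (37-66.3 °C). Soluble protein was quantified by TMT mass spectrometry relative to DMSO controls; the thermal stability score was transformed to a z-score; mean of n = 3 experiments.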

Compared with LAMB3 (UniProt Q13751), BABAM1 (UniProt Q9NWV8) is lower in thermal stability z-score: 0.108 for the first, -0.323 for the second.

Compared with SLTM (UniProt Q9NWH9), ARMC8 (UniProt Q8IUR7) is lower in thermal stability z-score: -0.561 for the first, -0.668 for the second.

First: OTUD7B (UniProt Q6GQQ9)
Second: DDAH1 (UniProt O94760)
The thermal stability z-score of the first is lower: 0.0572 for the first, 0.259 for the second.

First: OXNAD1 (UniProt Q96HP4)
Second: NDUFAF6 (UniProt Q330K2)
The thermal stability z-score of the first is lower: -0.691 for the first, 0.0349 for the second.

First: TMEM161A (UniProt Q9NX61)
Second: INPP5K (UniProt Q9BT40)
Sequence of UniProt Q9BT40 (Q9BT40 whole entry): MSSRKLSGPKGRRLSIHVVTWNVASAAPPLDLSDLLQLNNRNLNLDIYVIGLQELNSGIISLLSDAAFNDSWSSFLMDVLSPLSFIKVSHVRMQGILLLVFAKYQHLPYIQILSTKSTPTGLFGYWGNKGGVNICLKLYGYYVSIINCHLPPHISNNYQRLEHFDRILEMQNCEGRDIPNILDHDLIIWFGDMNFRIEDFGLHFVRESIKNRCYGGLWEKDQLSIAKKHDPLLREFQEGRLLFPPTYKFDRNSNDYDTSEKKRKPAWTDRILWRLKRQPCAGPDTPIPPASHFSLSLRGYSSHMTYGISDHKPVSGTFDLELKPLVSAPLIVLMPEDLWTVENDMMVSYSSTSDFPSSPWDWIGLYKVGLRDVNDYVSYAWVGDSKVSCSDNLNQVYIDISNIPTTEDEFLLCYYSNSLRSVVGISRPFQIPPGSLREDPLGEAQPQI
The thermal stability z-score of the first is lower: 0.0752 for the first, 0.268 for the second.

Compared with NDUFC2 (UniProt O95298), RAI14 (UniProt Q9P0K7) is lower in thermal stability z-score: 2.15 for the first, -0.554 for the second.

Compared with CYCS (UniProt P99999), SLC30A7 (UniProt Q8NEW0) is higher in thermal stability z-score: -0.152 for the first, 0.418 for the second.

Going from WDR34 (UniProt Q96EX3) to SKP2 (UniProt Q13309), the thermal stability z-score falls from -0.776 to -0.872.

First: SPRYD4 (UniProt Q8WW59)
Sequence of UniProt Q8WW59 (Q8WW59 whole entry): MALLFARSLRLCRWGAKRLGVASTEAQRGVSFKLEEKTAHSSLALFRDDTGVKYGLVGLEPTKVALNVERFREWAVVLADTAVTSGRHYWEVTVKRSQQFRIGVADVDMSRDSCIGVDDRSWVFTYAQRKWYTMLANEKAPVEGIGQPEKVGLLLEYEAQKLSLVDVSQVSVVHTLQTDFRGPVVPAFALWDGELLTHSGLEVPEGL
Second: MOCOS (UniProt Q96EN8)
Sequence of UniProt Q96EN8 (Q96EN8 whole entry): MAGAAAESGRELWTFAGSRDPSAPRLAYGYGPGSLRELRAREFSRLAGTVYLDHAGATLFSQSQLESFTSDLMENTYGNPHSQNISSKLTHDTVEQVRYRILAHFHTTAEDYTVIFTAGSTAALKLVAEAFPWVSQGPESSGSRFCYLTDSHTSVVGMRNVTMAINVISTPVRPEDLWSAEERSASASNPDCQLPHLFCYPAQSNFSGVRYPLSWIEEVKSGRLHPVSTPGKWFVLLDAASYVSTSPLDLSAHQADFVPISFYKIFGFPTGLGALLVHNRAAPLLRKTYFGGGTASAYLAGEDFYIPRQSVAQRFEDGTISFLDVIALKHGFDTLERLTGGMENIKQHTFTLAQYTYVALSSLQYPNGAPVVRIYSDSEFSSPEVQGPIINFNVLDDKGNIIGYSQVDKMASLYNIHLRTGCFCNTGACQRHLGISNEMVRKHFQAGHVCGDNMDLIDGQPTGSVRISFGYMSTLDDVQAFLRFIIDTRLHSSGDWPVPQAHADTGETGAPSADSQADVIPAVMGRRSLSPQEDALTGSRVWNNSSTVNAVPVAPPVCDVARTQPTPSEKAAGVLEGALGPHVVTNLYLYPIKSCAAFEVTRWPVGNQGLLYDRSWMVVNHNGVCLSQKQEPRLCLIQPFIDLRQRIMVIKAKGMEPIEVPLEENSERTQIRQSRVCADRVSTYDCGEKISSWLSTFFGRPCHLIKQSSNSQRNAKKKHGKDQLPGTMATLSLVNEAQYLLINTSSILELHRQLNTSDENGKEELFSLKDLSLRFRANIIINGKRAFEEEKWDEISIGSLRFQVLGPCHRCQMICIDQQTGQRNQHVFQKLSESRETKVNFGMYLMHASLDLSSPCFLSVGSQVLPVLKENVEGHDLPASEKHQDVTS
The thermal stability z-score of the first is higher: 1.75 for the first, -0.535 for the second.

First: UBR1 (UniProt Q8IWV7)
Second: MFF (UniProt Q9GZY8)
Sequence of UniProt Q9GZY8 (Q9GZY8 whole entry): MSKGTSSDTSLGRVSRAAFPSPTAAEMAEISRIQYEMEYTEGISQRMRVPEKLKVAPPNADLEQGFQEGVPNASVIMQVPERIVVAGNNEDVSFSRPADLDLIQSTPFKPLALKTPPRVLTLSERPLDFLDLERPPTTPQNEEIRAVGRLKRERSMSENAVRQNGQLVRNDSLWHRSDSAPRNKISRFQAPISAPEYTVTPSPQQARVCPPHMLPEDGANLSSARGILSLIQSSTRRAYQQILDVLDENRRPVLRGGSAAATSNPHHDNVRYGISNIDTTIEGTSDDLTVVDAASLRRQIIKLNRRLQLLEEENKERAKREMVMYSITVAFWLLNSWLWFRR
The thermal stability z-score of the first is lower: -0.191 for the first, 0.0903 for the second.

Going from CDK12 (UniProt Q9NYV4) to TRIM65 (UniProt Q6PJ69), the thermal stability z-score rises from -0.614 to -0.189.

Going from PNPO (UniProt Q9NVS9) to HDDC3 (UniProt Q8N4P3), the thermal stability z-score rises from -0.734 to -0.222.

Compared with PRIM2 (UniProt P49643), ELOVL1 (UniProt Q9BW60) is higher in thermal stability z-score: -0.113 for the first, 0.652 for the second.

Going from IGF2BP3 (UniProt O00425) to RPS2 (UniProt P15880), the thermal stability z-score rises from -0.579 to -0.532.

Compared with ZPR1 (UniProt O75312), RER1 (UniProt O15258) is higher in thermal stability z-score: -1.09 for the first, 0.934 for the second.
